{"source": "patent US4717662A", "about": "(priority 1985, dated 1988)", "key": {"alpha-amylase [1]": {"biological_target": "alpha-amylase (Bacillus licheniformis, UniProt P06278)", "sequence (P06278 30-512)": "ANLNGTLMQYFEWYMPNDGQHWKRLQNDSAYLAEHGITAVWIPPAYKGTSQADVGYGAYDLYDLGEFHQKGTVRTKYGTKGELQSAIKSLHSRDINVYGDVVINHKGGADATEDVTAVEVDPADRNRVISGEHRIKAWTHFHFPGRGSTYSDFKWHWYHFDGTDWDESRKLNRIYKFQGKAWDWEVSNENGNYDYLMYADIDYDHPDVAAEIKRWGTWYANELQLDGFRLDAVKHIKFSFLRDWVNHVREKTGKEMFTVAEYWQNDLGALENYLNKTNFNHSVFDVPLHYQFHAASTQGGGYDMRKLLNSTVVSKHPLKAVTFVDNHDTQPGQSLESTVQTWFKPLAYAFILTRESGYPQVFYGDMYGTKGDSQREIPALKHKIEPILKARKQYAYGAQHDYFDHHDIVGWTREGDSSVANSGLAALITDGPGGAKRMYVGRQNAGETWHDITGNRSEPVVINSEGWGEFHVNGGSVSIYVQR", "settings": "for (-Δ G°) stabilization free energy, R T ln F: 95° C. (T = 368K); for t 1/2: salt added to 1.22 M, diluted 1×100"}, "alpha-amylase [2]": {"test_system": "alpha-amylase", "experiment": "Comparative thermal stability of alpha-amylase with different anions at 90° C.", "format": "biochemical", "settings": "percent residual activity versus time at 90° C., FIG. 2", "description": "A comparative study was conducted in which the stability of alpha-amylase stabilized with acetate was compared with that containing anions known to have been added to commercially available alpha-amylase solutions. The activity of the various anion containing enzyme solutions was determined as previously described and the percent residual activity plotted as a function of time at 90° C. The results of this study are graphically represented in FIG. 2. The stabilizing effects of the different anions against thermal inactivation of the enzyme followed this order: citrate<sulphate<chloride<acetate."}, "[3]": {"test_system": "alpha-amylase (Taka-Therm L-170)", "settings": "pH 5.5", "description": "In a typical run, 70 lbs. of corn starch was suspended in 59 liters of water and the pH adjusted to 5.0 using acetic acid. […] After gelantinization, the starch was flashed into a temperature regulated vessel maintained at 95° C. for continued liquefaction for 2 hours. In another experiment, the liquefaction of starch was carried out at pH 6.3-6.5 (pH adjusted using sodium hydroxide) in the presence of 50 ppm added calcium.\nCalcium chloride was added to a level of 25 ppm (as Ca^++) and the pH adjusted to 5.5 using 10% sodium hydroxide."}}, "note": "Where two headings read alike, the source gives them in different places.", "data": [{"smiles": "O=C(O)Cc1ccccc1", "note": "[Phenylacetic acid, phenylacetic acid]", "values": [{"measurement": "Half-Life 95° C., pH 5.8", "setting": "alpha-amylase [1]", "result": 7, "unit": "minutes"}, {"measurement": "(-Δ G°) stabilization free energy, R T ln F", "setting": "alpha-amylase [1]; pH 5.8", "result": 1.0, "unit": "K cal/mole"}, {"measurement": "t 1/2", "setting": "alpha-amylase [1]; 95° C., pH 5.8", "result": 7.0, "unit": "min"}]}, {"smiles": "O=S(=O)(O)O", "note": "[sulphate]", "values": [{"measurement": "order of stabilizing effects of anions against thermal inactivation of the enzyme", "setting": "alpha-amylase [2]", "result": "citrate<sulphate<chloride<acetate"}]}, {"smiles": "Cl", "note": "[chloride]", "values": [{"measurement": "order of stabilizing effects of anions against thermal inactivation of the enzyme", "setting": "alpha-amylase [2]", "result": "citrate<sulphate<chloride<acetate"}]}, {"smiles": "O=C(O)C(c1ccccc1)c1ccccc1", "note": "[Diphenylacetic, diphenylacetic acid]", "values": [{"measurement": "Half-Life 95° C., pH 5.8", "setting": "alpha-amylase [1]", "result": 15, "unit": "minutes"}, {"measurement": "(-Δ G°) stabilization free energy, R T ln F", "setting": "alpha-amylase [1]; pH 5.8", "result": 1.5, "unit": "K cal/mole"}, {"measurement": "relative stabilizing effect in words", "setting": "alpha-amylase [1]; 95° C., pH 5.8, comparison among acids tested", "result": "the most"}, {"measurement": "t 1/2", "setting": "alpha-amylase [1]; 95° C., pH 5.8", "result": 15.0, "unit": "min"}]}, {"smiles": "O=C(O)CC(O)(CC(=O)O)C(=O)O", "note": "[citrate]", "values": [{"measurement": "order of stabilizing effects of anions against thermal inactivation of the enzyme", "setting": "alpha-amylase [2]", "result": "citrate<sulphate<chloride<acetate"}]}, {"smiles": "CCCC(=O)[O-].[Na+]", "note": "[CH3 CH2 CH2 COONa, sodium butyrate]", "values": [{"measurement": "(-Δ G°) stabilization free energy, R T ln F", "setting": "alpha-amylase [1]; pH 5.8", "result": 1.5, "unit": "K cal/mole"}, {"measurement": "order of thermal stabilization of the enzyme", "setting": "alpha-amylase [1]; 95° C., pH 5.8, aliphatic monocarboxylic acid sodium salts, FIG. 1", "result": "formate<acetate<propionate<butyrate"}, {"measurement": "t 1/2", "setting": "alpha-amylase [1]; 95° C., pH 5.8", "result": 13.3, "unit": "min"}, {"measurement": "additional stabilization attributed to the butyl group", "setting": "alpha-amylase [1]; relative to formate, 95° C., pH 5.8", "result": "about 0.6 K Cal/mol."}]}, {"smiles": "CC(=O)O", "note": "[Na Acetate, Sodium acetate]", "values": [{"measurement": "order of stabilizing effects of anions against thermal inactivation of the enzyme", "setting": "alpha-amylase [2]", "result": "citrate<sulphate<chloride<acetate"}, {"measurement": "DE Progression", "setting": "[3]; Starch slurry containing 0.7 mM of sodium acetate + 25 ppm of added Ca^++, 1/2 hr", "result": 4.15}, {"measurement": "DE Progression", "setting": "[3]; Starch slurry containing 0.7 mM of sodium acetate + 25 ppm of added Ca^++, 11/2 hr", "result": 8.87}, {"measurement": "DE Progression", "setting": "[3]; Starch slurry containing 0.7 mM of sodium acetate + 25 ppm of added Ca^++, 1 hr", "result": 6.11}, {"measurement": "DE Progression", "setting": "[3]; Starch slurry containing 0.7 mM of sodium acetate + 25 ppm of added Ca^++, 2 hr", "result": 10.25}, {"measurement": "DE Progression", "setting": "[3]; Starch slurry containing 0.01 M sodium acetate and 25 ppm of added Ca^++, 1/2 hr", "result": 5.53}, {"measurement": "DE Progression", "setting": "[3]; Starch slurry containing 0.01 M sodium acetate and 25 ppm of added Ca^++, 11/2 hr", "result": 10.82}, {"measurement": "DE Progression", "setting": "[3]; Starch slurry containing 0.01 M sodium acetate and 25 ppm of added Ca^++, 1 hr", "result": 8.64}, {"measurement": "DE Progression", "setting": "[3]; Starch slurry containing 0.01 M sodium acetate and 25 ppm of added Ca^++, 2 hr", "result": 13.01}]}]}
